The target in experiment [1] is T1, full-length beta-Catenin (Uniprot ID P35222) (Homo sapiens, UniProt P35222).
T1 construct: 10 nM full-length beta-Catenin (Uniprot ID P35222)
T1 sequence (P35222 1-781): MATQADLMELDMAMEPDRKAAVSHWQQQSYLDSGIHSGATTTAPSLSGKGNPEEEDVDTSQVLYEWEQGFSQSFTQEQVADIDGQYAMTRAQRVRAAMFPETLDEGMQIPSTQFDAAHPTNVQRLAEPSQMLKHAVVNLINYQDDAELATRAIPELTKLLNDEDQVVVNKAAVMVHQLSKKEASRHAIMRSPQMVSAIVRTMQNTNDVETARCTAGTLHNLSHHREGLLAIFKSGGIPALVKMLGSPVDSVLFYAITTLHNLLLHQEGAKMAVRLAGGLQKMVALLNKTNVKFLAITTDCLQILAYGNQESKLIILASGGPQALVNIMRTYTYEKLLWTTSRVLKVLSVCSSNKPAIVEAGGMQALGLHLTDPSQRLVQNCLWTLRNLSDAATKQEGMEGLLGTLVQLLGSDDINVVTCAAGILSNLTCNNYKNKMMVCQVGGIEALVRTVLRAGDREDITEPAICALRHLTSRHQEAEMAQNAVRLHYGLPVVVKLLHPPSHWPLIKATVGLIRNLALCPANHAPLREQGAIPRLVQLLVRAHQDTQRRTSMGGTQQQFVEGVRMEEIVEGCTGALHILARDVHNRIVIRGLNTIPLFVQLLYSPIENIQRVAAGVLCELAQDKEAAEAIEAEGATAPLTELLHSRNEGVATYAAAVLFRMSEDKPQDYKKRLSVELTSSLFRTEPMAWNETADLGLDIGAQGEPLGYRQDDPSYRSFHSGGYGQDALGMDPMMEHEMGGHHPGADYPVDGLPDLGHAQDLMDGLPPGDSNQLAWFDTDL
The experiment can be described thus: Fluorescence polarization IC50 (beta-catenin / 5FAM-TCF4 10-53 competition). In kind it is binding. The settings on record: fluorescence polarization; read-out: beta-Catenin FP IC50.

Experiment [2] addresses T2, beta-catenin/TCF4 engagement (Homo sapiens, UniProt P35222).
T2 construct: expressed in transfected cells; host or cells: HEK293
T2 sequence (P35222 1-781): T1 sequence (P35222 1-781)
The experiment can be described thus: Nano-BRET target engagement assay (B-cat-Halo & TCF4-Luc in HEK293 cells). In kind it is cell-based. Conditions: absolute IC50; read-out: NanoBRET Abs IC50. A general note: In BRET a luciferase serves as donor, and the signal depends on an acceptor being close.

Structures are written as SMILES.

As to `CC(=O)N1CCC[C@]12CC=CCCCC1(CCCC=CCCCOC(=O)N3CC[C@@](C(=O)N[C@@H](Cc4ccccc4)C(=O)N[C@@H](Cc4csc5ccccc45)C(=O)N[C@@H](CCC(N)=O)C(N)=O)(C3)NC(=O)[C@H](CC(C)C)NC(=O)[C@H](Cc3ccccc3)NC(=O)[C@H](C)NC(=O)[C@H](C)NC(=O)[C@H](CN(CC(=O)O)CC(F)(F)F)NC(=O)[C@H](CC(=O)O)NC1=O)NC(=O)[C@H](CC(C)(C)C)NC(=O)[C@H](CC(=O)O)NC2=O` (stereo partly drawn) [I-1700, Ac-PL3-Asp-Npg-B5-Asp-TfeGA-Ala-Ala-Phe-Leu-PyrS2-Phe-BztA-Gln-NH2], the figures for the IC50 in experiment [1] and in experiment [2] were 16 nM and 4.8 µM, respectively.

With `CC(=O)N1CCC[C@]12CC=CCCCC1(CCCC=CCCCOC(=O)N3CC[C@@](C(=O)N[C@@H](Cc4cccnc4)C(=O)N[C@@H](Cc4csc5ccccc45)C(=O)N[C@@H](CCC(N)=O)C(N)=O)(C3)NC(=O)[C@H](CC(C)C)NC(=O)[C@H](Cc3ccccc3)NC(=O)[C@H](C)NC(=O)[C@H](C)NC(=O)[C@H](CN(CC(=O)O)CC(F)(F)F)NC(=O)[C@H](CC(=O)O)NC1=O)NC(=O)[C@H](CC(C)(C)C)NC(=O)[C@H](CC(=O)O)NC2=O` (stereo partly drawn) [I-1701, Ac-PL3-Asp-Npg-B5-Asp-TfeGA-Ala-Ala-Phe-Leu-PyrS2-3PyrA-BztA-Gln-NH2], the 50% inhibitory concentration (IC50) in experiment [1] amounted to 25 nM; in experiment [2], 24.8 µM.

For `CC(=O)N1CCC[C@]12CC=CCCCC1(CCCC=CCCCOC(=O)N3CC[C@@](C(=O)N[C@@H](Cc4ccccc4C#N)C(=O)N[C@@H](Cc4csc5ccccc45)C(=O)N[C@@H](CCC(N)=O)C(N)=O)(C3)NC(=O)[C@H](CC(C)C)NC(=O)[C@H](Cc3ccccc3)NC(=O)[C@H](C)NC(=O)[C@H](C)NC(=O)[C@H](CN(CC(=O)O)CC(F)(F)F)NC(=O)[C@H](CC(=O)O)NC1=O)NC(=O)[C@H](CC(C)(C)C)NC(=O)[C@H](CC(=O)O)NC2=O` (stereo partly drawn) [I-1702, Ac-PL3-Asp-Npg-B5-Asp-TfeGA-Ala-Ala-Phe-Leu-PyrS2-2CNF-BztA-Gln-NH2], the 50% inhibitory concentration (IC50) was determined as 17 nM in experiment [1] and 6.9 µM in experiment [2].

As to `CC(=O)N1CCC[C@]12CC=CCCCC1(CCCC=CCCCOC(=O)N3CC[C@@](C(=O)N[C@@H](Cc4ccccc4C(F)(F)F)C(=O)N[C@@H](Cc4csc5ccccc45)C(=O)N[C@@H](CCC(N)=O)C(N)=O)(C3)NC(=O)[C@H](CC(C)C)NC(=O)[C@H](Cc3ccccc3)NC(=O)[C@H](C)NC(=O)[C@H](C)NC(=O)[C@H](CN(CC(=O)O)CC(F)(F)F)NC(=O)[C@H](CC(=O)O)NC1=O)NC(=O)[C@H](CC(C)(C)C)NC(=O)[C@H](CC(=O)O)NC2=O` (stereo partly drawn) [I-1704, Ac-PL3-Asp-Npg-B5-Asp-TfeGA-Ala-Ala-Phe-Leu-PyrS2-2F3MeF-BztA-Gln-NH2], the IC50 was determined as 37 nM in experiment [1] and 5.3 µM in experiment [2].

For `CC(=O)N1CCC[C@]12CC=CCCCC1(CCCC=CCCCOC(=O)N3CC[C@@](C(=O)N[C@@H](Cc4ccsc4)C(=O)N[C@@H](Cc4csc5ccccc45)C(=O)N[C@@H](CC(N)=O)C(N)=O)(C3)NC(=O)[C@H](CC(C)C)NC(=O)[C@H](Cc3ccccc3)NC(=O)[C@H](C)NC(=O)[C@H](C)NC(=O)[C@H](CN(CC(=O)O)CC(F)(F)F)NC(=O)[C@H](CC(=O)O)NC1=O)NC(=O)[C@H](CC(C)(C)C)NC(=O)[C@H](CC(=O)O)NC2=O` (stereo partly drawn) [I-1705, Ac-PL3-Asp-Npg-B5-Asp-TfeGA-Ala-Ala-Phe-Leu-PyrS2-3Thi-BztA-Asn-NH2], the half-inhibitory concentration (IC50) in experiment [1] came out at 9 nM; in experiment [2], 2.9 µM.

For the compound `CC(=O)N1CCC[C@]12CC=CCCCC1(CCCC=CCCCOC(=O)N3CC[C@@](C(=O)N[C@@H](Cc4ccsc4)C(=O)N[C@@H](Cc4csc5ccccc45)C(=O)N[C@@H](Cc4ccccc4C(N)=O)C(N)=O)(C3)NC(=O)[C@H](CC(C)C)NC(=O)[C@H](Cc3ccccc3)NC(=O)[C@H](C)NC(=O)[C@H](C)NC(=O)[C@H](CN(CC(=O)O)CC(F)(F)F)NC(=O)[C@H](CC(=O)O)NC1=O)NC(=O)[C@H](CC(C)(C)C)NC(=O)[C@H](CC(=O)O)NC2=O` (stereo partly drawn) [I-1707, Ac-PL3-Asp-Npg-B5-Asp-TfeGA-Ala-Ala-Phe-Leu-PyrS2-3Thi-BztA-2cbmf-NH2], the concentration for half-maximal inhibition (IC50) in experiment [1] was found to be 19 nM; in experiment [2], 6.1 µM.

As to `CC(=O)N1CCC[C@]12CC=CCCCC1(CCCC=CCCCOC(=O)N3CC[C@@](C(=O)N[C@@H](Cc4ccsc4)C(=O)N[C@@H](Cc4csc5ccccc45)C(=O)N[C@@H](Cc4cccc(C(N)=O)c4)C(N)=O)(C3)NC(=O)[C@H](CC(C)C)NC(=O)[C@H](Cc3ccccc3)NC(=O)[C@H](C)NC(=O)[C@H](C)NC(=O)[C@H](CN(CC(=O)O)CC(F)(F)F)NC(=O)[C@H](CC(=O)O)NC1=O)NC(=O)[C@H](CC(C)(C)C)NC(=O)[C@H](CC(=O)O)NC2=O` (stereo partly drawn) [I-1708, Ac-PL3-Asp-Npg-B5-Asp-TfeGA-Ala-Ala-Phe-Leu-PyrS2-3Thi-BztA-3cbmf-NH2], the figures for the IC50 in experiment [1] and in experiment [2] were 29 nM and 11.9 µM, respectively.

As for `CC(=O)N1CCC[C@]12CCCCCCC1(CCCCCCCCOC(=O)N3CC[C@@](C(=O)N[C@@H](Cc4ccccc4)C(=O)N[C@@H](Cc4csc5ccccc45)C(=O)N[C@@H](CCC(N)=O)C(N)=O)(C3)NC(=O)[C@H](CC(C)C)NC(=O)[C@H](Cc3ccccc3)NC(=O)[C@H](C)NC(=O)[C@H](C)NC(=O)[C@H](CN(CC(=O)O)CC(F)(F)F)NC(=O)[C@H](CC(=O)O)NC1=O)NC(=O)[C@H](CC(C)(C)C)NC(=O)[C@H](CC(=O)O)NC2=O` (stereo partly drawn) [I-1711, Ac-PL3-Asp-Npg-B5-Asp-TfeGA-Ala-Ala-Phe-Leu-PyrS2-Phe-BztA-Gln-NH2], the IC50 in experiment [1] came to 232 nM; in experiment [2], 33.3 µM.

Turning to `CC(=O)N1CCC[C@]12CCCCCCC1(CCCCCCCCOC(=O)N3CC[C@@](C(=O)N[C@@H](CC4CCCC4)C(=O)N[C@@H](Cc4csc5ccccc45)C(=O)N[C@@H](CCC(N)=O)C(N)=O)(C3)NC(=O)[C@H](CC(C)C)NC(=O)[C@H](Cc3ccccc3)NC(=O)[C@H](C)NC(=O)[C@H](C)NC(=O)[C@H](CN(CC(=O)O)CC(F)(F)F)NC(=O)[C@H](CC(=O)O)NC1=O)NC(=O)[C@H](CC(C)(C)C)NC(=O)[C@H](CC(=O)O)NC2=O` (stereo partly drawn) [I-1713, Ac-PL3-Asp-Npg-B5-Asp-TfeGA-Ala-Ala-Phe-Leu-PyrS2-CypA-BztA-Gln-NH2], the IC50 in experiment [1] was 498 nM; in experiment [2], greater than 20 µM.

For `CC(=O)N1CCC[C@]12CCCCCCC1(CCCCCCCCOC(=O)N3CC[C@@](C(=O)N[C@@H](Cc4ccccc4C(F)(F)F)C(=O)N[C@@H](Cc4csc5ccccc45)C(=O)N[C@@H](CCC(N)=O)C(N)=O)(C3)NC(=O)[C@H](CC(C)C)NC(=O)[C@H](Cc3ccccc3)NC(=O)[C@H](C)NC(=O)[C@H](C)NC(=O)[C@H](CN(CC(=O)O)CC(F)(F)F)NC(=O)[C@H](CC(=O)O)NC1=O)NC(=O)[C@H](CC(C)(C)C)NC(=O)[C@H](CC(=O)O)NC2=O` (stereo partly drawn) [I-1714, Ac-PL3-Asp-Npg-B5-Asp-TfeGA-Ala-Ala-Phe-Leu-PyrS2-2F3MeF-BztA-Gln-NH2], the IC50 is 372 nM in experiment [1] and 28.6 µM in experiment [2].

With `CC(=O)N1CCC[C@]12CC=CCCCC1(CCCC=CCCCOC(=O)N3CC[C@@](C(=O)N[C@@H](Cc4ccccc4Cl)C(=O)N[C@@H](Cc4csc5ccccc45)C(=O)N[C@@H](CCC(N)=O)C(N)=O)(C3)NC(=O)[C@H](CC(N)=O)NC(=O)[C@H](Cc3ccccc3)NC(=O)[C@H](C)NC(=O)[C@H](C)NC(=O)[C@H](CC(=O)O)NC(=O)[C@H](CC(=O)O)NC1=O)NC(=O)[C@H](CC(C)(C)C)NC(=O)[C@H](CC(=O)S)NC2=O` (stereo partly drawn) [I-1721, Ac-PL3-AspSH-Npg-B5-Asp-Asp-Ala-Ala-Phe-Asn-PyrS2-2C1F-BztA-Gln-NH2], the IC50 in experiment [1] was 139 nM; in experiment [2], greater than 20 µM.

On to `CC(=O)N1CCC[C@]12CC=CCCCC1(CCCC=CCCCOC(=O)N3CC[C@@](C(=O)N[C@@H](Cc4ccccc4Cl)C(=O)N[C@@H](Cc4csc5ccccc45)C(=O)N[C@@H](CCC(N)=O)C(N)=O)(C3)NC(=O)[C@H](CC(N)=O)NC(=O)[C@H](Cc3ccccc3)NC(=O)[C@H](C)NC(=O)[C@H](C)NC(=O)[C@H](CC(=O)O)NC(=O)[C@H](CC(=O)O)NC1=O)NC(=O)[C@H](CC(C)(C)C)NC(=O)[C@H](CC(=O)S)NC2=O` (stereo partly drawn) [I-1722, Ac-PL3-AspSH-Npg-B5-Asp-Asp-Ala-Ala-Phe-Asn-PyrS2-2C1F-BztA-Gln-NH2], for which the IC50 in experiment [1] is 135 nM; in experiment [2] it was greater than 20 µM.

Take `CC(=O)N1CCC[C@]12CC=CCCCC1(CCCC=CCCCOC(=O)N3CC[C@@](C(=O)N[C@@H](Cc4ccccc4C)C(=O)N[C@@H](Cc4csc5ccccc45)C(=O)N[C@@H](CCC(N)=O)C(N)=O)(C3)NC(=O)[C@H](CC(C)C)NC(=O)[C@H](Cc3ccccc3)NC(=O)[C@H](C)NC(=O)[C@H](C)NC(=O)[C@H](CN(CC(=O)O)CC(F)(F)F)NC(=O)[C@H](CC(=O)O)NC1=O)NC(=O)[C@H](CC(C)(C)C)NC(=O)[C@H](CC(=O)O)NC2=O` (stereo partly drawn) [I-1725, Ac-PL3-Asp-Npg-B5-Asp-TfeGA-Ala-Ala-Phe-Leu-PyrS2-2MeF-BztA-Gln-NH2]: the IC50 worked out at 15 nM in experiment [1] and 10 µM in experiment [2].

The IC50 is the midpoint of a concentration-inhibition curve.

Source of the values: patent US20240116985A1, “STAPLED PEPTIDES AND METHODS THEREOF” (priority 2020, published 2024).
